One series concerns left atrium. In words: Functional studies in pacing-induced CHF and control canine subjects: left atrial ERPs under autonomic manipulation. It counts as in vivo. Conditions: both groups (CHF and control). How it is done:
Canine subjects were divided into three groups. In group 1, CHF was induced by rapid ventricular pacing for 4 weeks (i.e. when the animals began to develop clinical heart failure. In group 2, pacing was performed for only 3 weeks. Group three were control canine subjects not subjected to rapid ventricular pacing. At the end of follow up period, high-density epicardial mapping was performed in the PVs, the PLA and the LAA. ERPs were obtained at multiple sites under the following conditions: a) baseline (BSL), b) left cervical vagal stimulation at 20 Hz (VS), c) beta-stimulation with isoproterenol (ISO), d) beta-blockade with propranolol (PROP) and e) beta-blockade+vagal stimulation (P+VS). VS caused significant mean ERP shortening in all three groups. […] PROP increased the VS effect on ERP in normal controls, but produced an attenuation of this effect in the CHF group (SEE FIG. 37). In this CHF model, after 4 weeks of pacing, an increased vagal effect on atrial refractoriness, an increased cumulative sympathetic effect, and a change in the sympatho-vagal interactions of the left atrium were observed. After 3 weeks of pacing, there is pronounced autonomic remodeling, with evidence of P as well S nerve upregulation in the PVs and left atrium. Both P and S upregulation are more pronounced in the PLA (and to a lesser extent in the PVs) than in the rest of the left atrium. While vagal responsiveness in the left atrium is unaltered at 3 weeks of pacing, it increases after 4 weeks of pacing. […] The autonomic remodeling becomes more pronounced with increasing duration of pacing. […] The increase in β1 binding is consistent with the increase in sympathetic innervation. […] The P upregulation noted in the left atrium in CHF is a compensatory response to S upregulation that occurs in response to CHF. […] However, since normal atria are more densely innervated with vagal fibers (than the ventricle) and also contain a significant amount of IKAch, the compensatory response is likely to be more vigorous in the atrium. The compensatory increase in vagal innervations, and resulting increase in IKAch, may contribute to increased AF substrate.

For series [1], the system named is βAR-stimulated Gs activation. In words: β-adrenergic (ISO) modulation of Ca2+ transients in isolated canine left atrial myocytes. The class given is cell-based. The settings on record: 1 μM ISO (βAR saturating); within 20-30 seconds. The source says: (§1) Cardiac myocytes were isolated from the canine left atrium, loaded with fluo-4 (fluorescent Ca^2+ indicator), and electrically field-stimulated. […] The effects can be summarized quantitatively (SEE FIG. 12B).

In series [2] the test system is M2R-stimulated Gi activation. Description: Cholinergic (CCh) modulation of Ca2+ transients in isolated canine left atrial myocytes. The class given is cell-based.
Description: as §1

The next series deals with Gαi. In words: cp-Gα peptide delivery to the PLA with electroporation/sonoporation: ERPs and AF inducibility with vagal stimulation. The class given is in vivo, canine. Here is the method:
High-density epicardial mapping was performed in the PVs (2×2 electrodes), the PLA (7×3 electrodes) and the left atrial appendage (LAA) (7×3 electrodes) of canine subjects. Effective refractory periods (ERPs) were obtained at baseline and in response left cervical vagal stimulation (VS) (20 Hz). Cp-Gαi2 peptide (200-330 nM) was then applied topically to the epicardial aspect of the PLA in a canine subgroup. Cp-Gαi3 peptide (200-330 nM) was then applied topically to the epicardial aspect of the PLA of a second subgroup. Electroporation was performed after the application of peptide to enhance intracellular delivery of the peptide. ERPs were then re-measured in the presence and absence of VS.
In canine subjects, high-density epicardial mapping was performed in the PVs (2×2 electrodes), the PLA (7×3 electrodes) and the left atrial appendage (LAA) (7×3 electrodes). Effective refractory periods (ERPs) were obtained at baseline and in response left cervical vagal stimulation (VS) (20 Hz). FLAG-tcp-Gα peptides (200 nM-3 μM of cp-Gαi1/2 (N=8 canine subjects), cp-Gαi3 (N=4 canine subjects), or random-sequence cp-GαoR peptide (N=3 canine subjects) were injected into the PLA epicardium of the canine subjects followed by either sonoporation or electroporation. In a subgroup of the canine subjects, sonoporation or electroporation alone was performed without introduction of cp-Gαi peptide. ERPs were then re-measured in the presence and absence of VS. In a separate set of control animals, ERPs were measured before and after the administration of systemic autonomic blockade with propranolol (0.2 mg/kg)+atropine (0.04 mg/kg).

Series [3] has as its system posterior left atrium (PLA). In words: Topical tropicaimide on the PLA: vagal stimulation (VS)-induced ERP shortening and AF inducibility. It counts as in vivo, canine. Here is the method: P nerve fibers, and related muscarinic receptors, are preferentially located in the PLA and selective cholinergic blockade in the PLA can be successfully performed to alter vagal AF substrate. PLA, PVs and left atrial appendage (LAA) in canine subjects were immunostained for S nerves (dopamine beta-hydroxylase), P nerves (acetylcholine esterase), and M2 receptors. Epicardial electrophysiologic mapping was performed in 7 additional canine subjects. The PLA was the most richly innervated with nerve bundles containing P and S fibers (PV=0.9±1, PLA=3.2±2.5, LAA=0.17±0.3/cm^2; p<0.001); nerve bundles were located in fibrofatty tissue as well as in surrounding myocardium. P predominated over S fibers within bundles (P/S: PV=4.4, PLA=7.2, LAA=5.8). M2 distribution was also most pronounced in the PLA (M2 stained cells/cm^2: PLA=17.8±8.3, PV=14.3±7.3, LAA=14.5±8, p=0.012). A particularly high concentration of P fibers was found in the ligament of Marshall (in the PLA). The ligament of Marshall could be traced back to a major branch of the left cervical vagus nerve. The nerve in turn innervates the PVs and the rest of the PLA. The PLA surface is stained for acetylcholinesterase. […] A small nerve branch (N) originating in the LOM is seen to innervate the LSPV. […] Cholinergic nerves from the PLA fat pad (PFP) can be seen to innervate the LIPV. […] 1% tropicaimide was then applied topically to the PLA.
Using the canine model outlined below, 1% tropicaimide (a cholinergic blocker) was applied topically to the epicardial aspect of the PLA in canine subjects. Effective refractory periods were measured at multiple sites in the PLA a) at baseline, b) after left vagal stimulation, c) after tropicaimide application to the PLA and d) in the presence of vagal stimulation after tropicaimide application. […] The robust autonomic profile of the PLA and its role in AF (both in normal as well as diseased hearts), thereby making it an attractive target for autonomic manipulation by regional delivery of Gα C-terminal peptides. […]

Series [4] has as its system canine subject atrial cardiomyocytes. Description: Toxicity by rapid automated tetrazolium dye based assay (MTT). Conditions: 5 μM peptide. It counts as cell-based.
The test system of a further series is Gαo1. Description: Gαo1 minigene in the PLA: vagal and CCh induced ERP shortening. It counts as in vivo, dog. Conditions: 10 mg minigene in PLA; day 3; compared to GαR dogs. Here is the method: This Example describes the use of a Gαo1 inhibitor to treat arrhythmia is a subject. In one animal, the following was performed: • Day 1: Open-chest mapping was performed via a left lateral thoracotomy. 10 mg of minigene expressing Gαo1 peptide was then injected in the PLA, followed by electroporation. • Day 3: A left lateral thoracotomy was performed again. The left vagus nerve was isolated. ERPs were measured in the PLA, PV and LAA in the absence and presence of vagal stimulation. Data from the above animal was compared with other dogs that received other minigenes (i.e. Gαi2, Gαi2+Gαo1 and GαR (see Aistrup et al, Heart Rhythm 2011)

[5] abbreviates: 200 nM-3 μM injected into PLA + sono/electroporation.
Where [6] appears, read: during VS, after peptide delivery into PLA.

Results on six compounds are retold here after patent US8518884B2, “Methods for treating atrial or ventricular arrhythmias by administering a G-protein alpha inhibitor” (Northwestern University, priority 2008, dated 2013).

Entries after “also recorded” stand apart in the source; their conditions may differ. Ends that are not written are not given here.

On to `CC(C)NCC(O)c1ccc(O)c(O)c1` (stereo not shown) [ISO, isoproterenol], for which, in the series with left atrium, the “effect on mean ERP compared to PROP” value is “significantly shortened”. The “effect on Ca2+ transients” value in series [1] is reported as “appreciably augmented”.
For the compound “cp-Gαi2: chimeric peptide: cell-penetrating poly-arginine N-terminal sequence and C-terminal last 11 residues of Gαi (IKNNLKDCGLF; also: cell-penetrating poly-arginine N-terminal sequence, length not given here)”, in series [2] (0.1-3 μM peptide superfusion 10-20 min, CCh), the “attenuation of CCh effect on Ca2+ transients” value is reported as “significantly attenuate”. For the same compound, the “VS induced ERP shortening” value in the series on Gαi (200-330 nM topical to PLA + electroporation, PLA, PV and LAA) is reported as “significantly attenuated”.
As for `CCN(Cc1ccncc1)C(=O)C(CO)c1ccccc1` (stereo not shown) [tropicaimide], the “VS-induced ERP shortening” value in series [3] (1% tropicaimide topically to PLA, PLA, PV and LAA) was “significantly attenuated; also recorded: either entirely eliminated or at least significantly attenuated”. The “decrease in AF inducibility” value in series [3] (1% tropicaimide topically to PLA, vagal stimulation) turned out to be 92%. The “AF induction with extrastimulus testing” value in series [3] (after 1% tropicaimide to PLA, presence or absence of vagal stimulation) is on record as “could not induced”.
With “cp-Gαi peptide: cell-penetrating Gαi C-terminal peptide (cp-Gαi1/2 or cp-Gαi3), isoform not specified at the place (IKNNLKDCGLF; also: cell-penetrating sequence attached, not shown)”, in the series on Gαi (setting [5]), the “VS-induced ERP shortening in the LAA” value was “Elimination” and the “VS-induced ERP shortening in the PLA” value was “eliminated”. In the series on Gαi (after peptide application), the “ERP heterogeneity (coefficient of variation of all ERPs in PLA)” value was “no change”. Moreover, the “AF inducibility in the presence of VS” value with Gαi (after peptide delivery to PLA) is “significantly decreased”. Besides, the “reduction in AF inducibility during VS” value with Gαi (compared to vagal stimulation at baseline) amounted to 69%. In the series on Gαi (setting [6]), the “AF episodes >5 seconds in duration induced” value is 10 episodes and the AF inducibility index turned out to be 0.05. For the same compound, the “atrial or ventricular arrhythmias induced by peptide injection” value in the series on Gαi (with or without sono/electroporation) is “No atrial or ventricular arrhythmias were induced”. For the same compound, the “enhancement of cell viability” value in series [4] is recorded as ~8%.
Turning to IANNLRGCGLY [Gαo1 minigene], in the series with Gαo1, the “CCh induced ERP shortening” value was “significant reduction” and the “vagal induced ERP shortening” value is reported as “significant reduction”.
For the compound `C[N+](C)(C)CCOC(N)=O` [CCh, carbachol, reference compound], the “effect on cellular Ca2+ transients” value in series [2] (10 μM CCh (M2R saturating), field-stimulated myocytes) was “nearly eliminated”.
